Data from publication PMC11750622, “Structural insights into translocation and tailored synthesis of hyaluronan” (Nature Structural & Molecular Biology, 2024).

What was measured:
CvHAS [1] = details: acceptor (primer) site; UDP-GlcA and Mn2+ present; nanodisc with Nb881 and Nb872; catalytically inactive mutant
CvHAS [2] = biological target: T1, CvHAS (Paramecium bursaria Chlorella virus CZ-2, UniProt Z9D3Q5ADJ6); experiment: cryo-EM structure, […] Å; assay type: binding; details: formed in situ from GlcNAc and UDP-GlcA; Mn2+; nanodisc with Nb881 and Nb872; also with UDP in 8SNE (3.0 Å)
T1 construct: pET28a-CvHAS, Ni-NTA purified, expressed in E. coli C43; MSP1E3D1 nanodiscs with nanobodies for cryo-EM, IMVs for activity
T1 sequence (Z9D3Q5ADJ6 1-562): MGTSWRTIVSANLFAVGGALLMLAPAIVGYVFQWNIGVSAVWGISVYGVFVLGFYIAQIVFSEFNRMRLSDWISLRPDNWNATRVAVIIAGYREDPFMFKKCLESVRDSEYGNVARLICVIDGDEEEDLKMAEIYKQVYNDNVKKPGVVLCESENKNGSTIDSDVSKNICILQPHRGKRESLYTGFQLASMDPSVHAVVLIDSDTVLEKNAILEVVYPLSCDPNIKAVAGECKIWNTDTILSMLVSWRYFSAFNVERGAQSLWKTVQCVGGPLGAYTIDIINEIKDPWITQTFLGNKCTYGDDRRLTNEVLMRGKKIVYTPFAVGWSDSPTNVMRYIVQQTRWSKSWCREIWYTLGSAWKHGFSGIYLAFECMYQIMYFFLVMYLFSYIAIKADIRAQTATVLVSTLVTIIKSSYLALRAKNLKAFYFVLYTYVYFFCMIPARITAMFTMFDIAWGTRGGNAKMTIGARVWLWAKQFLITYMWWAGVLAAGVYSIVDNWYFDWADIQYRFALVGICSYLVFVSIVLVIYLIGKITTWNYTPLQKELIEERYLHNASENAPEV

XlHAS1 = biological target: T2, XlHAS1 (Xenopus laevis, UniProt P13563); experiment: cryo-EM structure, […] Å; assay type: binding; details: Mg2+; Fab complex in GDN; gating loop inserted; active site
T2 construct: gene has1; full-length, N-terminal 12xHis tag, expressed in Sf9 cells, purified in GDN detergent, monomer
T2 sequence (P13563 1-588): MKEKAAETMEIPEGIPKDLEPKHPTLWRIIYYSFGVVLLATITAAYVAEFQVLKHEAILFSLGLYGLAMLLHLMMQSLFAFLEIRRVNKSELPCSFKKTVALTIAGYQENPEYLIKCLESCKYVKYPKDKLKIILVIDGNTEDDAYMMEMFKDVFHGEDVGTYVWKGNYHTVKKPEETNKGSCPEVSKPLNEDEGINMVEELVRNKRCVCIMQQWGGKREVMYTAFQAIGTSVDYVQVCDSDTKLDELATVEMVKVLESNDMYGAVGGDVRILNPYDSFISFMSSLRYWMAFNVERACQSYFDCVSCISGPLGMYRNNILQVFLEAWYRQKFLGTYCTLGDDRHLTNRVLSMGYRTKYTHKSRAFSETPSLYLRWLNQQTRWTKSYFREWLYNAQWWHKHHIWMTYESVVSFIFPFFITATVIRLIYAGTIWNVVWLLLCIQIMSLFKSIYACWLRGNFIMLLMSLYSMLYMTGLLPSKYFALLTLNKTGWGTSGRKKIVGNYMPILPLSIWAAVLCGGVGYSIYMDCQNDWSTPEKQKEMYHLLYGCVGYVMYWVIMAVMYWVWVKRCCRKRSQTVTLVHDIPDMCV

CvHAS [3] = biological target: T1, CvHAS; experiment: cryo-EM structure, […] Å; assay type: binding; details: formed in situ from UDP-GlcNAc and UDP-GlcA; Mn2+; nanodisc with Nb886 and Nb872; minor UDP-GlcA state not excluded
[4] = biological target: T3, Xenopus laevis HAS isoform 1 (Xenopus laevis, UniProt P13563); experiment: cryo-EM structure; GDN-solubilised XlHAS1 mixed with Fab at a 1:4 molar ratio, overnight at 4 °C, SEC on Superose 6 in 0.01% GDN; apo, HA-bound and UDP-bound samples; details: both partners purified
T3 construct: also called XlHAS1; DG42

CC(=O)N[C@H]1C(O)O[C@H](CO)[C@@H](O)[C@@H]1O (some centres unmarked) [GlcNAc]
cryo-EM structure, 3.2 Å (CvHAS [1]): the GlcNAc primer is well resolved and occupies the same acceptor position

CC(=O)N[C@H]1C(O)O[C@H](CO)[C@@H](O)[C@@H]1O[C@@H]1O[C@H](C(=O)O)[C@@H](O)[C@H](O)[C@H]1O (some centres unmarked) [HA disaccharide]
cryo-EM structure, 3.3 Å (CvHAS [2]): resolves a GlcNAc at the acceptor position that is elongated by a single sugar unit

O=c1ccn([C@@H]2O[C@H](COP(=O)(O)OP(=O)(O)O)[C@@H](O)[C@H]2O)c(=O)[nH]1 [UDP]
cryo-EM structure, 3.2 Å (XlHAS1): UDP is coordinated by conserved motifs of the GT domain
cryo-EM structure, 3.0 Å (CvHAS [3]): exposure of WT CvHAS to both of its substrates resulted in a UDP–HA disaccharide-bound conformation

B1: noninhibitory antibody Fab fragment against XlHAS1 (Fab, V domains shown)
VH: EVQLVESGGGLVQPGGSLRLSCAASGFNVSSYYIHWVRQAPGKGLEWVASISSSSGSTSYADSVKGRFTISADTSKNTAYLQMNSLRAEDTAVYYCARSGYYWGPYFGGFDYWGQGTLVTVSS
VL: DIQMTQSPSSLSASVGDRVTITCRASQSVSSAVAWYQQKPGKAPKLLIYSASSLYSGVPSRFSGSRSGTDFTLTISSLQPEDFATYYCQQSSSSLITFGQGTKVEIK
notes: source: selected from Fab phage library E on XlHAS1 nanodiscs
binding result [4]: binds
